Laboratory results reported in article PMC3004370, “PI3Kα Inhibitors That Inhibit Metastasis” (Oncotarget, 2010).

Legend:
p110δ = target: T1, p110δ (Homo sapiens, UniProt O00329); assay: Biochemical PI3K inhibition assay, p110δ; conditions: 10 μM ATP, two hours
T1 construct: His-tag; made in house; host or cells: Sf9 insect cells (baculovirus)
From the text: (§1) cDNA clones of PIK3CA, PIK3CB and PIK3CG were obtained from Origene (Rockville, MD, USA). PIK3CD was generously provided by Novartis Pharmaceuticals. The cDNA clones were sub-cloned into pFastBac His-Tag (Invitrogen, Carlsbad, CA, USA) and baculovirus clones were generated by the Bac-to-Bac expression system (Invitrogen). p110α, p110β and p110δ were co-expressed in Sf9 insect cells (Invitrogen) with a nSH2-iSH2 fragment of the regulatory subunit p85 comprising AA residues 322 to 600 [4]. p110γ was expressed without a regulatory subunit. Sf9 cells were lysed in a buffer containing 50 mM sodium phosphate, pH 8.0, 400 mM NaCl, 5% glycerol, 1% Triton X-100, 10 mM 2-mercaptoethanol, 1 mM orthovanadate, 10 mM imidazole, and sonicated on ice for 1 minute. Proteins were purified by adding Ni-NTA Superflow beads (Qiagen, Valencia, CA, USA) to the lysate and subsequent rolling for 30 min at 4°C. Beads were washed twice with 50 mM phosphate buffer, pH 8.0, 0.5 M NaCl, 50 mM Imidazole, 2 mM DTT and eluted in the same buffer but with 200 mM imidazole. Purified PI3K's were mixed 1:1 with glycerol and stored at -20°C.
(§2) J-series inhibitors were dissolved, serial diluted in DMSO and deposited into 96 well plates at a final DMSO concentration of 1%. We used a novel assay to determine their potency and selectivity. In brief, micelles of 2.5 μg L-a-Phosphatidylinositol and 2.5 μg 1,2-Diacyl-sn-glycero-3-phospho-L-serine were formed by sonication, mixed with the individual PI3K isoforms and added to the drug dilutions in a reaction buffer containing 10 mM HEPES, 25 mM NaCl, 0.125 μg/μl BSA, and 2 mM BME (final concentrations). Reactions were timed after the addition of 10 μM ATP with 40 μCi/ml γ-32P-ATP (PerkinElmer, Waltham, MA, USA) and 2 mM MgCl2 (all final concentrations). The reactions were terminated after two hours by the addition of 2 N HCl and the lipids extracted with 1:1 MetOH/Chloroform. Radio-labeled phosphatidyl-inositol-3-phosphate in the extracted organic fraction was quantified after the addition of Microscint O (PerkinElmer) using a TopCount 96 well plate scintillation counter (PerkinElmer). IC50 concentrations and inhibition curves were calculated using Prism 5 (GraphPad Software, La Jolla, CA).

p110α = target: T2, p110α (Homo sapiens, UniProt P42336); assay: Biochemical PI3K inhibition assay, p110α; conditions: for IC50: 10 μM ATP, two hours
T2 construct: His-tag; made in house; host or cells: Sf9 insect cells (baculovirus)
Experimental: PIK3CD was generously provided by Novartis Pharmaceuticals. […] Sf9 cells were lysed in a buffer containing 50 mM sodium phosphate, pH 8.0, 400 mM NaCl, 5% glycerol, 1% Triton X-100, 10 mM 2-mercaptoethanol, 1 mM orthovanadate, 10 mM imidazole, and sonicated on ice for 1 minute. Proteins were purified by adding Ni-NTA Superflow beads (Qiagen, Valencia, CA, USA) to the lysate and subsequent rolling for 30 min at 4°C. Beads were washed twice with 50 mM phosphate buffer, pH 8.0, 0.5 M NaCl, 50 mM Imidazole, 2 mM DTT and eluted in the same buffer but with 200 mM imidazole. Purified PI3K's were mixed 1:1 with glycerol and stored at -20°C.
as §2, with “In brief, micelles of 2.5 μg L-a-Phosphatidylinositol and 2.5 μg 1,2-Diacyl-sn-glycero-3-phospho-L-serine were formed by sonication, mixed with the individual PI3K isoforms and added to the drug dilutions in a reaction buffer containing 10 mM HEPES, 25 mM NaCl, 0.125 μg/μl BSA, and 2 mM BME (final concentrations).” left out

p110γ = target: T3, p110γ (Homo sapiens, UniProt P48736); assay: Biochemical PI3K inhibition assay, p110γ; conditions: 10 μM ATP, two hours; no regulatory subunit
T3 construct: His-tag; made in house; host or cells: Sf9 insect cells (baculovirus)
From the text: as §1, §2

p110β = target: T4, p110β (Homo sapiens, UniProt P42338); assay: Biochemical PI3K inhibition assay, p110β; conditions: 10 μM ATP, two hours
T4 construct: His-tag; made in house; host or cells: Sf9 insect cells (baculovirus)
From the text: as §1, §2

[1] = tested on: subcutaneous HCT116 xenograft tumors; assay: Xenograft tumor model; format: in vivo; conditions: nude mice, 150 mg/kg IP daily for three weeks
Experimental: (§3) Tumor xenografts were established by injecting 5x10^6 HCT116 cells subcutaneously into the right flanks of female nude mice. Tumor volume was measured twice weekly using electronic calipers and calculated as length x width^2 x 0.5. After tumors reached an average volume of 50 mm^3, animals were treated daily with drugs at 150 mg/kg via IP injection for three weeks. Tumor phospho-Akt levels were determined following harvest on the last day of the study. Xenografts were excised, snap frozen in liquid nitrogen and pulverized with a pestle. Homogenized tissue was re-suspended in lysis buffer (Cell Signaling Technology) and protein contents normalized by Bradford assay (Bio-Rad Laboratories, Hercules, CA, USA). Western blots were performed as described above.

[2] = tested on: P-Akt in HCT116 xenografts; assay: Intra-tumor P-Akt levels in xenografts; format: in vivo, nude mice; conditions: post IP injection
Experimental: as §3

[3] = tested on: phosphorylation of Akt1 and Akt2 in HCT116 cells; assay: P-Akt western analysis in cells; format: cell-based, human; conditions: 6 hours, concentrations that inhibited cell growth
Experimental: Phopspho-Akt levels were assayed in HCT116 cells. 1x10^6 cells/well were seeded in six-well plates and serum starved for 2 hours in McCoy's 5A medium. Drugs were pre-mixed with complete medium containing 10% FBS and incubated with the cells for 6 hours. Cells were lysed on ice with 100 mM Tris-HCl, pH 7.0, 10% 2-mercaptoethanol, 4% SDS, 20% glycerol, 0.05% Bromophenol blue, 20 μl 1 mM NaF, 1 mM Na3VO4, and Complete Protease Inhibitor Cocktail Tablet (Roche, Nutley, NJ, USA) without EDTA and sonicated for 30 seconds. Phospho-Akt was assayed with Phospho-Akt (Ser473) antibody (#9271, Cell Signaling Technology, Danvers, MA, USA). Subsequently the membrane was stripped and incubated with Akt1 (D-17) antibody (sc-7126, Santa Cruz Biotechnology,Santa Cruz, CA, USA)) for loading control.

[4] = tested on: Intraspleenic-injected HCT116 liver and lung metastases; assay: Intraspleenic tumor model (metastasis); format: in vivo, mice; conditions: 150 mg/kg IP daily, three weeks
Experimental: Intraspleenic-injected HCT116 liver and lung metastases in NOD.Cg-Prkdcscid Il2rgtm1Wjl/SzJ mice (Jackson Laboratory, Bar Harbor, ME, USA) were generated as described in Erikson et. al.. J-series compounds were solubilized in 1:1 DMSO/Cremophor EL (Sigma-Aldrich) and diluted 2.3-fold in water to a final concentration of 7.5 mg/ml. 400 μl of this formulation (150 mg/kg) was injected intraperitoneally (IP) once a day for three weeks, beginning the third day post-surgery. Mice were sacrificed after the treatment and the liver, lungs, and spleen sampled. DNA was extracted from organs with the DNeasy Blood & Tissue Kit (Qiagen). The qPCR assay used for quantification of human DNA in mouse organs has been described. All mouse protocols were designed in accordance with the NIH Guide for the Care and Use of Laboratory Animals and approved by the Institutional Animal Care and Use Committee.

T4 sequence (P42338 whole entry): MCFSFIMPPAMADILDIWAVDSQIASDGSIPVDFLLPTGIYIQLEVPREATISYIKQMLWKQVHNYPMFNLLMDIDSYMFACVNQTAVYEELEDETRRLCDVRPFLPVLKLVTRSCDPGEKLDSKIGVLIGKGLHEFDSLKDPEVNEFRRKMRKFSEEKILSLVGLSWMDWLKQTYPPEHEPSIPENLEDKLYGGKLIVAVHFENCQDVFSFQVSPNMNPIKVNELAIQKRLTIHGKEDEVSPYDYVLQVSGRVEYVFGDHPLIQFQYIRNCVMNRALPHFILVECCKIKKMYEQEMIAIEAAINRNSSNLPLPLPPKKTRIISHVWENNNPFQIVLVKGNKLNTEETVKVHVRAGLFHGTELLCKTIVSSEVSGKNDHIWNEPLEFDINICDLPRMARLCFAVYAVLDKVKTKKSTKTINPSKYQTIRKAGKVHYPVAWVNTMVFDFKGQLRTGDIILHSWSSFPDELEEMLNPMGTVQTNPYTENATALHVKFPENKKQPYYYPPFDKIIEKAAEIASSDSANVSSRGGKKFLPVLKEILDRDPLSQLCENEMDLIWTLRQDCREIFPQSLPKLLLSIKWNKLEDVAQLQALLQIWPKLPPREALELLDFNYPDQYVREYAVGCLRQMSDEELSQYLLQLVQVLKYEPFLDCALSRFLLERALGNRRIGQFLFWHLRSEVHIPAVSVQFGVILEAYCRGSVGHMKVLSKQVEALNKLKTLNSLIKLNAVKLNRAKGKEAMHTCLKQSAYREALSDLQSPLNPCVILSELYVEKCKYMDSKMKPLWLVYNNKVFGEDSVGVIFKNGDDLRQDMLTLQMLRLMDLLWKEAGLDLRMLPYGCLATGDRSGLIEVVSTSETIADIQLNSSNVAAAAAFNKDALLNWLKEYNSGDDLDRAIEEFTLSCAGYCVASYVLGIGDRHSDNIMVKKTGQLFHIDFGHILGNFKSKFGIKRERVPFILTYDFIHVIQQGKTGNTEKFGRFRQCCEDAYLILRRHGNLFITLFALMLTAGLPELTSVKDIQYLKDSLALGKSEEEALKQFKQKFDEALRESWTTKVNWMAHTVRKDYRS
T4 sequence (P27986 322-600 partner limits assumed): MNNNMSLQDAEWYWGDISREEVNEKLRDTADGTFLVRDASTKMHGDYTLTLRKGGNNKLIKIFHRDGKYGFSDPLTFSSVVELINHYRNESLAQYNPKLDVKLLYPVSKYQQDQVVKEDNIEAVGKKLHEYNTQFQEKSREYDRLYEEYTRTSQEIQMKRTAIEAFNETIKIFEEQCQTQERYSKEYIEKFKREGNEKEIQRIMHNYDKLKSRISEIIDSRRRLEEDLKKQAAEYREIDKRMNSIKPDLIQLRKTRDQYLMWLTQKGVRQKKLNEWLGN
T1 sequence (O00329 whole entry): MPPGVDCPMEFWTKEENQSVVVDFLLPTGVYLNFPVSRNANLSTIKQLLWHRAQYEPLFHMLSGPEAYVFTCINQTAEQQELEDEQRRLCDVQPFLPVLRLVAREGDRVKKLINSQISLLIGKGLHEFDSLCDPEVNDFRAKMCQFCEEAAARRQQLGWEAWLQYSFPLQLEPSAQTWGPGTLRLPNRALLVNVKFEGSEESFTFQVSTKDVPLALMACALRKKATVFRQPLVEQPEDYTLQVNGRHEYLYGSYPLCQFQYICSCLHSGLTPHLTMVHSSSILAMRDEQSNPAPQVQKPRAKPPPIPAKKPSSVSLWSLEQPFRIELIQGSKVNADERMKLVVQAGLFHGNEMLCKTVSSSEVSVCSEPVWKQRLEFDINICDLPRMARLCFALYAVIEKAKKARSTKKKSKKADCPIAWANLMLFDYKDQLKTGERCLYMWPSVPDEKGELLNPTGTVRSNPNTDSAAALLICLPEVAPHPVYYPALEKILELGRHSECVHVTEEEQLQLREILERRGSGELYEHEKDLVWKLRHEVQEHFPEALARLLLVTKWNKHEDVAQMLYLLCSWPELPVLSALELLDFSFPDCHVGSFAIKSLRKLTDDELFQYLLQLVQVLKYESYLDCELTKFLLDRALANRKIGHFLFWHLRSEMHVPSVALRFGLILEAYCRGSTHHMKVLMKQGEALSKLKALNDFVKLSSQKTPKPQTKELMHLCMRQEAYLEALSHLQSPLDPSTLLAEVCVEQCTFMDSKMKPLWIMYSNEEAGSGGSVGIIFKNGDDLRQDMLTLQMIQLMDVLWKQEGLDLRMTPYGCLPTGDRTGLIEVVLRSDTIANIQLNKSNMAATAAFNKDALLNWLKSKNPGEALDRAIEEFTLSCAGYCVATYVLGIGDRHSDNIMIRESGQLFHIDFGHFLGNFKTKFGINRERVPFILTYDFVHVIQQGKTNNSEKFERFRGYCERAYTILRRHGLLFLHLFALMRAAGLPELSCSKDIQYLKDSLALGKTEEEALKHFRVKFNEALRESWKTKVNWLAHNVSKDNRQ
T1 sequence (P27986 322-600 partner limits assumed): as the sequence (P27986 322-600 partner limits assumed) above
T3 sequence (P48736 whole entry): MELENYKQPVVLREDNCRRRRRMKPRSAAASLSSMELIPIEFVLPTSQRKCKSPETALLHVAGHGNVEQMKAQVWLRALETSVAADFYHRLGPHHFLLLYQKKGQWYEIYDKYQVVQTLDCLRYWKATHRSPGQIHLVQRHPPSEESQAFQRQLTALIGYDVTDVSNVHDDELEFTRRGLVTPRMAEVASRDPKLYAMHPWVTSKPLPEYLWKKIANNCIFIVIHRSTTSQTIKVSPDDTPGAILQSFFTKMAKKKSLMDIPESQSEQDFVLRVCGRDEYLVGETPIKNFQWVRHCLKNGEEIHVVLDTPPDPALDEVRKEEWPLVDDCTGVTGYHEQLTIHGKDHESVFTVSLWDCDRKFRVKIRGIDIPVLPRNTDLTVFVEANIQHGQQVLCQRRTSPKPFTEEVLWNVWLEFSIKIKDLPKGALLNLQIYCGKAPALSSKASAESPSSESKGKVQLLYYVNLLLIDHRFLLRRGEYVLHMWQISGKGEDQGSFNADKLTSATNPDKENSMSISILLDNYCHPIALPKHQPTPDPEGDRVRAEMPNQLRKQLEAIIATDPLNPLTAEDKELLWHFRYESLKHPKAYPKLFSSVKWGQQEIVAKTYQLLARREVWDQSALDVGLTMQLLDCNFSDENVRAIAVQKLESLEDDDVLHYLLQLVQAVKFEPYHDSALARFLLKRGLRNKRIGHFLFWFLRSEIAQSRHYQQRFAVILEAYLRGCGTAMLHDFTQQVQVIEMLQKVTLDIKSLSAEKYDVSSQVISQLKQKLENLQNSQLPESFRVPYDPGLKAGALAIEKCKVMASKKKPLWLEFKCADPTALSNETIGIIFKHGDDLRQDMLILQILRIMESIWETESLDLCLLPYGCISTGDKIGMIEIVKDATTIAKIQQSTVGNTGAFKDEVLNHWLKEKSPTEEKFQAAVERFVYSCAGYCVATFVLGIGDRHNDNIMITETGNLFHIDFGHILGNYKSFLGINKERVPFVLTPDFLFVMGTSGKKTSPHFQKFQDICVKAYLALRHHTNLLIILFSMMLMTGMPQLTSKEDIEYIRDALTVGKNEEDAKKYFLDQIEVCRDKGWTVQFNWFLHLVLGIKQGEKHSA
T2 sequence (P42336 whole entry): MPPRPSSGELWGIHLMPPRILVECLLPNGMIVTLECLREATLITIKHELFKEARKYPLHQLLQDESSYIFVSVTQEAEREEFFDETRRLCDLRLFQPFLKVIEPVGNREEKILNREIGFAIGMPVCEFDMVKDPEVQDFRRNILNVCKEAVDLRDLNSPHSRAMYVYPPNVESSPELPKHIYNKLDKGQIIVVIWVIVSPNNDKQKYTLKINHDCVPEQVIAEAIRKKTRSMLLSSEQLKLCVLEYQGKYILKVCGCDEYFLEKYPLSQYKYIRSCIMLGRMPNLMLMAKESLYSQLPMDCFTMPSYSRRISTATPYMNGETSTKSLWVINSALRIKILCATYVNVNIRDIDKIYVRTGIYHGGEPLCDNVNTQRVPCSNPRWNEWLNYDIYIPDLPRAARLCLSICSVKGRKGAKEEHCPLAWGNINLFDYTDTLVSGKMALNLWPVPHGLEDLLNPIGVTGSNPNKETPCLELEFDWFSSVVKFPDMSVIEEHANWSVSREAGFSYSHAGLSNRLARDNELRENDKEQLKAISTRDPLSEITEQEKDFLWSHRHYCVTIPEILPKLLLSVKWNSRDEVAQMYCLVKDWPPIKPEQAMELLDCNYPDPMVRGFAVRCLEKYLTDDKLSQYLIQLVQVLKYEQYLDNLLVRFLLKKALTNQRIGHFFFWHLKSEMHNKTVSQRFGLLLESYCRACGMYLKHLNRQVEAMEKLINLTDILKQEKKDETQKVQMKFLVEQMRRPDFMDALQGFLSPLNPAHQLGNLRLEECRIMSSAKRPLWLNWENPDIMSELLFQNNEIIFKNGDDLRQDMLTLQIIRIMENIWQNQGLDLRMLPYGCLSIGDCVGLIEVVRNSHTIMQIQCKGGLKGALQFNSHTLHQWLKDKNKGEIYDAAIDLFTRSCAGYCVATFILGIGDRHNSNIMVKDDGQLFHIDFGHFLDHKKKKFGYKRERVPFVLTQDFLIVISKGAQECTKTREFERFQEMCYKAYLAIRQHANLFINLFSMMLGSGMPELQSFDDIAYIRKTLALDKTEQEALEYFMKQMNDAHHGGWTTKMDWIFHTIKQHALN
T2 sequence (P27986 322-600 partner limits assumed): as the sequence (P27986 322-600 partner limits assumed) above

Compound	IC50 (p110δ)	IC50 (p110α)	increase of selectivity against the other three isoforms (p110α; J32 versus J27)	effect of substitution on PI3Kα potency/selectivity (in words) (p110α; SAR discussion)	IC50 (p110γ)	IC50 (p110β)	anti-tumor activity against subcutaneous HCT116 xenograft tumors [1]	intra-tumor P-Akt levels [2]	increase of inhibitory activity for PI3Kα (p110α; compared to J32)	phosphorylation of Akt1 and Akt2 (western blot) [3]	metastatic lesions in the lungs [4]	metastatic foci in the liver (histopathology) ([4]; compared to vehicle)	reduction in primary tumor burden in the spleen (real-time PCR) ([4]; compared to vehicle)	reduction of metastatic liver burden (real-time PCR) ([4]; compared to vehicle)
CCN(/N=C/c1cnc2ccc(Br)cn12)S(=O)(=O)c1cc([N+](=O)[O-])ccc1C [J32]	1400 nM	15 nM	up to 8 fold	potency for PI3Kα was retained	620 nM	1200 nM	Only a minor anti-tumor activity							
CCN(/N=C/c1cnc2ccc(Br)cn12)S(=O)(=O)c1cc([N+](=O)[O-])c(N)cc1C [J124-I]	26 nM	2 nM			73 nM	46 nM	Only a minor anti-tumor activity	reduced up to 3 hours	7.5 fold	inhibitory effect				
CCN(/N=C/c1cnc2ccc(Br)cn12)S(=O)(=O)c1cc([N+](=O)[O-])c(N)cc1Cl [J128]	110 nM	4 nM			250 nM	130 nM					no lesions	few, if any, metastatic foci	~ 50%	9 fold
